Five substances from US5741643A, “Oligonucleotide clamps” (Lynx Therapeutics, Inc., priority 1995, dated 1998) can be followed below.

One data set deals with ATH8 cells. The data set is described as follows: Toxicity to ATH8 cells in the ATH8 cell assay. The following applies: 2 μM and 8 μM. Format: cell-based. The procedure: (§1) Each of the compounds of Table I were tested in an ATH8 cell assay to assess the inhibition of the cytopathic effects of HIV infection on the ATH8 cells. The ATH8 assay is described in the following reference: Matsukura, pages 285-304 in Antisense RNA and DNA (Wiley-Liss, New York, 1992).
(§2) The cytopathic effect examined in the assay was the lytic effect of HIV and/or drug on the ATH8 cells. A measure of the degree of viral activity is the degree to which cells are lysed at the end of a given time period in culture. Protection against lysis is measured by the size of pellet formed after cells are harvested from culture and centrifuged, as described in the references cited above.
(§3) Curves 1 and 2 illustrate results from positive and negative controls, i.e. curve 1 illustrates the results for uninfected ATH8 cells without drug (negative control) and curve 2 illustrates the results for infected ATH8 cells without drug (positive control). Curves 3 and 4 illustrate results from cultures containing 8 μM of oligonucleotide clamp in infected and uninfected ATH8 cells, respectively. Curves 5 and 6 illustrate results from cultures containing 2 μM of oligonucleotide clamp in infected and uninfected ATH8 cells, respectively.

The subject of data set [1] is HIV (infected ATH8 cells). The data set is described as follows: ATH8 cell assay: inhibition of the cytopathic (lytic) effects of HIV infection on ATH8 cells. Format: cell-based. The settings on record: 2 μM and 8 μM. Here is the method: as §1, §2, §3
On the technique in general: Cytopathic effects are the visible damage that an infection or toxin causes in cultured cells.

For data set [2], the system named is target polynucleotide 5'-[…]-3' (pol and nef genes of HIV). The data set is described as follows: Melting temperature of oligonucleotide clamp/target polynucleotide complex (260 nm absorption v. temperature curve). Format: binding. The following applies: half maximum of the 260 nm absorption v. temperature curve. Here is the method: Preferably, stability of oligonucleotide clamp/target polynucleotide complexes are determined by way of melting, or strand dissociation, curves. The temperature of fifty percent strand dissociation is taken as the melting temperature, Tm, which, in turn, provides a convenient measure of stability. Tm measurements are typically carried out in a saline solution at neutral pH with target and clamp concentrations at between about 1.0-2.0 μM. Typical conditions are as follows: 150 mM NaCl and 10 mM MgCl2 in a 10 mM sodium phosphate buffer (pH 7.0) or in a 10 mM Tris-HCl buffer (pH 7.0); or like conditions. Data for melting curves are accumulated by heating a sample of the oligonucleotide clamp/target polynucleotide complex from room temperature to about 85°-90° C. As the temperature of the sample increases, absorbance of 260 nm light is monitored at 1° C. intervals, e.g. using a Cary (Australia) model 1E or a Hewlett-Packard (Palo Alto, Calif.) model HP 8459 UV/VIS spectrophotometer and model HP 89100A temperature controller, or like instruments.
The oligonucleotides and oligonucleotide clamps listed in the Table I below were synthesized in accordance with Example 1 for specific binding to the following single stranded or double stranded target polynucleotides:
The melting temperature of the following compounds were determined by computing the half maximum of the 260 nm absorption v. temperature curve, as described above: DL015:39.0° C.; DL014: 58° C.; DL013: 68.0° C.; DL021: 67.5° C.; DL022: 67.5° C.; and control (two unconnected oligonucleotides without binding moieties having sequences: 3'-TTTTCTTTTCCCCCCT-5' and 5'-TTTTC^Me TTTT(C^Me)6-3'): 32.0° C.

As for “5'-CACTTTTCTTTTGGGGGGTCACACTCCCCCCTTTTCTTTTAC-Chol [DL014]”, the “toxicity (FIG. 3), in words” value in the data set with ATH8 cells is recorded as “without toxicity”. In addition, the “change in pellet size versus time (FIG. 3), effect in words” value in data set [1] was “clear and positive effect at both concentrations”. Moreover, in data set [2], the melting temperature came to 58 °C.
For the substance “5'-Chol-CACTTTTCTTTTCCCCCCTCACACACTCCCCCCTTTTCTTTTAC-Chol [DL022]”, the melting temperature in data set [2] was 67.5 °C.
The same measure, in the same setting: the value for “5'-CACTTTTCTTTTGGGGGGTCACACTCCCCCCTTTTCTTTTAC (chemistry not given here) [DL015]” was 39.0 °C; that for “5'-Chol-TTTTCTTTTCACACTTTTCTTTTGGGGGGTCACACTCCCCCC-Chol [DL021]” was 67.5 °C; that for “5'-Chol-CACTTTTCTTTTGGGGGGTCACACTCCCCCCTTTTCTTTTAC-Chol [DL013]” was 68.0 °C.
